Consider 9 compounds from publication PMC11857211, “Bioprospecting Bioactive Peptides in Halobatrachus didactylus Body Mucus: From In Silico Insights to Essential In Vitro Validation” (Marine Drugs, 2025).

Like-named read-outs stand apart in the source and are kept apart here. Ends that are not written are not given here.

Details of experiment [1]: method as in 2 sources, one per row (each row's own in cited_ref): ref 19 = [19]; doi:10.1016/j.procbio.2018.06.001; 19. Jin J. Ahn C. Je J. Puri Fi Cation and Characterization of Antioxidant Peptides from Enzymatically Hydrolyzed Ark Shell ( Scapharca subcrenata ) Process Biochem. 2018 72 170 176 10.1016/j.procbio. ||| ref 21 = [21]; PMID 26304349; doi:10.1016/j.foodchem.2015.07.015; 21. Zheng L. Zhao M. Xiao C. Zhao Q. Su G. Practical Problems When Using ABTS Assay to Assess the Radical-Scavenging Activity of Peptides: Importance of Controlling Reaction PH and Time Food Chem. 201. Conditions: cited from earlier work; for ABTS antioxidant activity: ark shell (Scapharca subcrenata) peptides, values converted to the same units.

The conditions of experiment [2]: ark shell (Scapharca subcrenata) peptides, values converted to the same units; cited from earlier work. The source says: In the ORAC assay, the values were 0.334 µmol TE/µmol of peptide for P1 and ...
The subject of another experiment is ACE. The arrangement: method as in 2 sources, one per row (each row's own in cited_ref): ref 27 = [27]; PMID 29533693; doi:10.1080/10408398.2018.1452182; 27. Yathisha U.G. Bhat I. Karunasagar I. Mamatha B.S. Antihypertensive Activity of Fish Protein Hydrolysates and Its Peptides Crit. Rev. Food Sci. Nutr. 2019 59 2363 2374 10.1080/10408398.2018.1452182 ||| ref 28 = [28]; PMID 31671730; doi:10.3390/md17110613; 28. Abachi S. Bazinet L. Beaulieu L. Antihypertensive and Angiotensin-i-Converting Enzyme (ACE)-Inhibitory Peptides from Fish as Potential Cardioprotective Compounds Mar. Drugs 2019 17 613 10.3390/md1. The conditions noted are these: cited from earlier work.

Experiment [3] has as its target α-glucosidase (Saccharomyces cerevisiae, UniProt P53341). Briefly: biochemical.
Experimental: The α-glucosidase inhibitory activity was evaluated through the following method, outlined by Vilas-Boas et al. [42]. The assay was performed in a 96-well microplate (Stansted) and incubated at 25 °C for 5 min, and the absorbance was monitored at 405 nm with a microplate reader (Synergy H1, BioTek Instruments, Winooski, VT, USA). A negative control was performed, with 50 μL of a buffer solution that replaced the peptides. […] Each sample and control analysis was triplicated. The inhibition of α-glucosidase was quantified as the concentration required to inhibit 50% of the enzymatic activity (IC50). The IC50 values were determined using non-linear modelling of the data obtained.
The target of experiment [4] is α-glucosidase. The arrangement: method as in PMID 34445765. Conditions: peptides hydrolyzed from food sources; cited from earlier work. On the procedure:
The peptides were tested for antidiabetic activity based on the capacity to inhibit 50% of […].

Setting [5] is: peptides from fish protein hydrolysates.

Chain of α-glucosidase (Saccharomyces cerevisiae, UniProt P53341) (P53341 whole entry): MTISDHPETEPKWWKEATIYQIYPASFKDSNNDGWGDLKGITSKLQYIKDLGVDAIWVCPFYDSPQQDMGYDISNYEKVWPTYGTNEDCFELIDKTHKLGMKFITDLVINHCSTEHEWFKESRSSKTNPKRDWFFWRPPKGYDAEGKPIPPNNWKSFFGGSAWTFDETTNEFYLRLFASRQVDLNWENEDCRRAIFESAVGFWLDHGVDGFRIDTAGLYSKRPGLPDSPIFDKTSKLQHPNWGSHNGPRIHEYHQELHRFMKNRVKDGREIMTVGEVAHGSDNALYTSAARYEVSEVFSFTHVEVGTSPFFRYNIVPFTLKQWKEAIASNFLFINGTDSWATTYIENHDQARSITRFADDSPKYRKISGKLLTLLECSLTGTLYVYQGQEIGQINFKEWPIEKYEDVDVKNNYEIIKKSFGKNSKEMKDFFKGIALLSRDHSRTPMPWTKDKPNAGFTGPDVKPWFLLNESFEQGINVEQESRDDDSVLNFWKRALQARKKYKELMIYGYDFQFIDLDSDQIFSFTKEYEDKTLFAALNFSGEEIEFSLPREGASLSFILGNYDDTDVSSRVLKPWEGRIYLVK

Take `N[C@@H](Cc1ccc(O)cc1)C(=O)O` [Tyr]: the figures for the “ABTS radical scavenging value” in experiment [1] (pH 6.0) and in experiment [1] (pH 8.0) were 2.89 µmol TE/µmol and 6.55 µmol TE/µmol, respectively.
Consider HPLDSLCL [P2], for which the ORAC antioxidant activity in experiment [2] was 0.239 µmol TE/µmol of peptide. Besides, the ABTS antioxidant activity in experiment [1] is recorded as 0.005 µmol TE/µmol of peptide.
“HWTTQR [peptide from Syngnathus schlegeli protein hydrolysate]”: the “ACE inhibition IC50” value in the experiment with ACE (setting [5]) was 1440 µg/mL.
For IKPLNY, the “ACE inhibition IC50” value with ACE (synthesized peptide before/after fragmentation in digestion) is listed as 32 µg/mL.
Turning to MCLDSCLL [P1], in experiment [2], the ORAC antioxidant activity is listed as 0.334 µmol TE/µmol of peptide. For the same compound, the ABTS antioxidant activity in experiment [1] was 0.678 µmol Trolox equivalents (TE)/µmol of peptide.
For the compound PAPPPPPP [HdPPP], the IC50 on α-glucosidase [3] (α-glucosidase IC50, 25 °C, 5 min, absorbance 405 nm, mean ± standard deviation, n = 3) is 2.21 mM; against α-glucosidase [3] (α-glucosidase IC50, same result in molar units) it was 2.21 mM.
For RVPSLM, the 50% inhibitory concentration (IC50) at α-glucosidase [4] is 0.023 mM.
As for “TFPHGP [peptide from Syngnathus schlegeli protein hydrolysate]”, the “ACE inhibition IC50” value in the experiment on ACE (setting [5]) was 600 µg/mL.
In the case of TPSPR, the IC50 on α-glucosidase [4] was 0.04 mM.

By IC50 is commonly meant the concentration at which inhibition is half-maximal.
